Test results published in PMC12111648, “New Dimethoxyaryl-Sesquiterpene Derivatives with Cytotoxic Activity Against MCF-7 Breast Cancer Cells: From Synthesis to Topoisomerase I/II Inhibition and Cell Death Mechanism Studies” (International Journal of Molecular Sciences, 2025).
“Also recorded” adds a separate entry of the source.

How the values were obtained:
[1] = tested on: MCF-7 cells; assay: MTT cytotoxicity assay on MCF-7 cells; assay type: cell-based, human; settings: for IC50: Homo sapiens, MCF7, MTT, 48 h incubation, IC50 ± SD, three experiments in triplicate; for Selectivity Index (SI): SI = IC50 on MCF-10 cells/IC50 on MCF-7 cells
Procedure: In this study, we wondered whether semi-synthetic compounds have potential antitumoral properties against BC. Therefore, we were interested in investigating the effect of the compounds on the MCF-7 cell line. Firstly, we studied the effect on cell viability using a colorimetric MTT assay, which was performed to quantify the cytotoxic activity; each compound was evaluated at different concentrations (500−100−20−4−0.8−0.16−0.032−0 µM). Daunorubicin was also used as a positive control for comparison with a reference drug. […] Although the MCF-10 cell line provides a useful selectivity model, it may not fully represent the varying sensitivities of different normal cell types within a multicellular organism. The SI value indicates the ratio of toxicity in mammalian host cells to that in a tumoral cell. The data obtained in response to different concentrations of compounds were used to calculate the IC50 and corresponding SI values, as shown in Table 1.
The American Type Culture Collection (Rockville, MD, USA) supplied the following experimental cell lines: MCF-7, a human breast cancer cell line, and MCF-10A, a human epithelial breast cell line (ATCC N° CRL-10317). Both cell lines were grown in DMEM-F12 medium containing 10% FCS, 100 U/mL penicillin, 100 μg/mL streptomycin, and 1 mM glutamine. The cells were seeded at a concentration of 100 μL per well at a plating density of 3 × 10^3 cells/well and incubated for 24 h at 37 °C under 5% humidified CO2 to enable attachment. The cells were then treated with varying concentrations of synthesized compounds for […] under the same conditions. The compound stock solution was prepared in DMSO, and the final concentration of DMSO was kept at 0.1%. Control cultures were treated with only 1% ethanol.
Cells from the MCF-7 and MCF-10 lines were seeded into 96-well plates at a density of 1 × 10^4 per well. After 24 h, the compounds were added at increasing concentrations (500–100–20-4–0.8–0.16–0.032–0 µM), and the cells were incubated at 37 °C in a humidified 5% CO2/95% air mixture for 48 h. Following incubation, the cells were washed twice with PBS, and 100 μL of 0.5 mg/mL MTT solution was added to each well. After 2 h of incubation, the MTT solution was removed, and the formazan crystals were dissolved in 50 μL of DMSO per well. Absorbance was then measured at 570 nm using a microplate ELISA reader. IC50 values, determined from three independent experiments conducted in triplicate, were calculated using SigmaPlot® software (version 11.0). The selectivity index (SI) of each compound in each cell line was determined by calculating the ratio of the IC50 values for MCF-10 and cancer cell lines. Compounds were considered selective if SI values were equal to or greater than 3 [46].

[2] = tested on: MCF-7 cells; assay: Intracellular ROS generation (DCFH2-DA, flow cytometry); assay type: cell-based, human; settings: MCF-7, compounds at respective IC50, 24 h, versus control
Procedure: An increase in intracellular ROS may be one of the factors that contribute to the cytotoxicity of certain compounds in cancer cell lines. In fact, ROS and mitochondrial damage are often associated with the induction of cell death. […] DCF fluorescence was then measured by flow cytometry. The difference in the percentage of DCF-positive cells between treated and control cells was used to indicate an increase in intracellular ROS, as shown in Figure 4.
Reactive oxygen species (ROS) production was measured using flow cytometry. Cells were treated with compounds (each with respective IC50 values) for 24 h, with untreated cells serving as the negative control and cells treated with 1 µM daunorubicin as the positive control. Following the treatment, intracellular ROS levels were visualized after incubation with 2′,7′-dichlorodihydro-fluorescein diacetate (DCFH2-DA) at a final concentration of 10 μM for the last 30 min of the treatment period. After incubation, the cells were washed with PBS, trypsinized, and centrifuged, and the resulting pellet was resuspended in PBS and immediately examined by flow cytometry.
Figure 4 The effect of the compound’s treatment on intracellular ROS generation. Cells were treated with compounds (respective IC50 values for each compound for 24 h), and intracellular ROS levels were determined in the human cancer cell line MCF-7 by flow cytometry using dichloro-fluorescein diacetate (DCFH2-DA). * p < 0.05 versus control cells (Ctrl). The data represent the means ± S.D. of at least three experiments with triplicate samples.

[3] = tested on: human topoisomerase II; assay: TOP2 DNA relaxation / plasmid linearization assay; assay type: biochemical; settings: 20 μM
Procedure: The ability to relax DNA conformations is a central function of topoisomerase enzymes. Several studies have associated some proapoptotic compounds with the ability to inhibit topoisomerase enzymes. The ability of the selected compounds to inhibit TOP1 or TOP2 activity was determined. In this experiment, daunorubicin was used as a positive control for TOP1/2 inhibition, as previously reported. […] It is important to note the potential for cardiotoxicity associated with some TOP2 inhibitors, which highlights the relevance of assessing compound 14c’s interaction with TOP2B. […] Future studies should include assays to evaluate the specific activity of 14c against both TOP2A and TOP2B to provide a more comprehensive safety profile, as isoform-selective TOP2 inhibitors may offer a therapeutic advantage by reducing adverse effects.
Topoisomerase II-mediated DNA cleavage was assessed using a plasmid linearization assay adapted from previously described methods. Supercoiled plasmid DNA (200 ng final concentration) was incubated with purified human topoisomerase II (10 U) in the presence or absence of test agents or a positive control. Reactions were carried out in a total volume of 20 μL, composed of 2 μL of 10× topoisomerase II reaction buffer, an appropriate volume of compound or control, and nuclease-free water. ATP (final concentration adjusted from a 20 mM stock) was freshly added to the reaction buffer immediately prior to use. Reactions were initiated by the addition of topoisomerase II and incubated at 37 °C for 30 min. To terminate the reactions, 2 μL of 10% SDS was added directly to the tubes while still in the 37 °C water bath, followed by the addition of 1.5 μL of 250 mM tetrasodium EDTA (pH 8.0) and 2 μL of proteinase K solution (0.8 mg/mL). […]
Figure 7 The effect of sesquiterpene aryl esters on TOP1- and TOP2-induced DNA relaxation was assessed. (A) The TOP1 inhibition assay evaluated the compounds (10c, 11c, 12c, 13c, and 14c) at a concentration of 20 μM in a DNA relaxation assay. […]

SMILES	IC50 [1]	Selectivity Index (SI) [1]	intracellular ROS levels (DCF fluorescence) [2]	inhibition of TOP2-induced DNA relaxation [3]
COc1ccc(/C=C2\C(C)=CCC3C(C)(C)CCC[C@]23C)cc1OC (stereo partly drawn) [Compound 13c, (4aS)-5-((E)-3,4-Dimethoxybenzylidene)-1,1,4a,6-tetramethyl-1,2,3,4,4a,5,8,8a-octahydronaphthalene]	22.5 ± 2.6 µM	6.0	significantly increased	no inhibition
COc1cc2c(cc1OC)[C@]1(C)CCC3C(C)(C)CCC[C@]3(C)C1=C2 (stereo partly drawn) [Compound 14c, (6aR,11bS)-8,9-Dimethoxy-4,4,6a,11b-tetramethyl-2,3,4,4a,5,6,6a,11b-octahydro-1H-benzo[a]fluorene]	9 ± 2.8 µM	44	induced oxidative stress; also recorded: significantly increased	selectively inhibited topoisomerase II; also recorded: modified the TOP2-induced DNA relaxation pattern
